Type in all cases: cell-based, mouse
For one series, the system named is RAW264.7 cells. In words: MTT cell viability (cytotoxicity) assay. As to conditions: 24 h incubation, concentration inhibiting 10% of cell proliferation, improved Karber methodology, defined as highest noncytotoxic concentration. The method, then:
(§1) The mouse macrophage-derived RAW264.7 cell line was purchased from Sun Yat-Sen University, Guangzhou, China, and maintained at 37°C in a humidified atmosphere containing 5% CO2 in Dulbecco's modified eagle medium (DMEM) supplemented with 10% heat-inactivated fetal bovine serum (FBS), penicillin (100 U/mL), and streptomycin (100 μg/mL). Cells in exponential growth phase were used for experiments.
The cytotoxicity of the isolated compounds toward RAW264.7 was evaluated by a conventional MTT assay as reported previously. RAW264.7 cells (1 × 10^5 cells/well) were inoculated to 96-well plates and incubated for 12 h and then treated with different concentrations of compounds. After additional 24 h incubation, 10 μL of MTT solution ([…]) was added to each well, and the plate was incubated for another 4 h. The medium was discarded and 150 μL of dimethyl sulfoxide (DMSO) was added to each well, solubilizing formazan. After 15 min incubation, absorbance at 570 nm was read using a microplate reader. The percent viability was calculated using the following formula: (1) Cell viability%=[…].
The anti-inflammatory activities of the isolates were tested in vitro for inhibiting the NO and TNF-α production in LPS-induced RAW264.7 cells. Firstly, the cytotoxicity of these compounds cells on the proliferation of RAW264.7 cells was measured by MTT assay. The IC10 value of each compound (Table 1), at which 10% of cells proliferation was inhibited, was calculated with an improved Karber methodology and defined as the highest noncytotoxic concentration. While the dose is ≤IC10, the effect of the isolated compound on RAW264.7 cells could be neglected. In the following experiments, the concentrations of each compound were set at [IC10] × 1, [IC10] × 10^−1, and [IC10] × 10^−2 levels.

Series [1] has as its system NO production in LPS-induced RAW264.7 cells. The experiment in a line: Nitric oxide production in LPS-induced RAW264.7 cells (Griess assay). As to conditions: for inhibitory effect on LPS-induced NO production (in words): compounds at [IC10] × 1, × 10^−1, × 10^−2. The procedure: as §1
Nitrite accumulation, as an indicator of NO production in the culture medium, was measured with the Griess reagent as reported previously. RAW264.7 cells were plated into 96-well plate at a density of 3 × 10^6 cells/mL. After 12 h incubation, cells were stimulated by LPS (100 ng/mL) with or without samples for 24 h. Subsequently, the supernatant (100 μL) was harvested and mixed with an equal volume of Griess reagent (0.1% N-(1-naphthyl) ethylenediamine dihydrochloride, 1% sulfanilamide, and 2.5% H3PO4) and stood for 15 min at room temperature in the dark. NO production was determined by measuring absorbance at 540 nm and was converted to nitrite concentration by reference to a standard curve generated with sodium nitrite.
Figure 1 Effects of ethanol extract of S. glabra (ESG) and its four subfractions (ESG-1, ESG-2, ESG-3, and ESG-4) on RAW264.7 cells viability and LPS-induced NO production. Cells viability (a) was tested by MTT assay; higher value of optical density at 490 nm means higher cell viability. Nitrite accumulated in cell culture supernatants was determined by Griess assay as an index for NO release (b). Cells were treated with LPS (1 μg/mL) for 24 h in the absence or presence of samples (1.6, 8.0, 40, and 200.0 μg/mL). The data were presented as mean ± S.D. (n = 5). Dexamethasone (DMS) was employed as a positive control. # and ###, respectively, mean P < 0.05 and P < 0.001 compared with control group. ∗, ∗∗, and ∗∗∗, respectively, mean P < 0.05, P < 0.01, and P < 0.001 compared with group treated with LPS alone.
(§2) Figure 4 The inhibitory effects of the isolated compounds on NO (a) and TNF-α (b) productions in LPS-induced RAW264.7 cells. Cells were seeded into 24-well plates and incubated for 12 h and then treated with or without different concentrations of compounds for 24 h (for NO) or […] (for TNF-α). The culture supernatant was analyzed for nitrite and TNF-α production. Results shown are representative of three separate experiments.
Background: Griess reagent forms a coloured azo dye with nitrite.

In series [2] the test system is TNF-α production in LPS-induced RAW264.7 cells. In words: TNF-α production in LPS-induced RAW264.7 cells (ELISA). Conditions: for IC50: Mus musculus, LPS-induced RAW264.7 cells; for inhibitory effect on LPS-induced TNF-α production (in words): RAW264.7 cells, compounds at [IC10] × 1, × 10^−1, × 10^−2. The procedure:
as §1
RAW264.7 cells (3 × 10^6 cells/mL) were seeded onto 24-well culture plate and incubated for 12 h. The cells were then pretreated with various concentrations of the isolated compounds for 2 h before stimulation with LPS (100 ng/mL) with or without samples for 12 h. Supernatants were then collected and the TNF-α concentrations in the medium were determined using commercially available ESISA kits according to the manufacturer's instructions as described in previous study.
as §2

A value given as a limit tells only on which side of the number the result lay.

Consider nine compounds from paper PMC4363603, “Inhibitory Effects of Chemical Compounds Isolated from the Rhizome of Smilax glabra on Nitric Oxide and Tumor Necrosis Factor-α Production in Lipopolysaccharide-Induced RAW264.7 Cell” (Evidence-based Complementary and Alternative Medicine : eCAM, 2015).

In general, inhibition refers to the relative decrease from the control value, in per cent. Read a low inhibition as a weak effect. The term IC50 denotes the point on the concentration scale where inhibition reaches its midpoint. A high value points to weaker potency in that assay.

In turn, `COc1cc(C2c3c(cc(OC)c(O)c3OC)CC(CO)C2CO)cc(OC)c1O` (centres unmarked) [Comp. 6, lyoniresinol] came in with an IC10 values in the series on RAW264.7 cells of 238.1 ± 31.6 µM. The compound also displayed an inhibition at 238.1 µM in series [1] (Mus musculus, compound at level of IC10, 238.1 μM) of 32.7%. For the same compound, in series [1], the “inhibitory effect on LPS-induced NO production (in words)” value is listed as “lowest inhibitory effects”.
As for `COC(=O)/C=C/c1ccc(O)c(O)c1` [Comp. 8, trans-caffeic acid methyl ester], the IC10 values in the series on RAW264.7 cells stood at 5.2 ± 3.2 µM.
Compound `COc1cc(O)cc2c1C(=O)O[C@@H](C)CCCCCCC2` [Comp. 2, lasiodiplodin] showed an IC10 values in the series on RAW264.7 cells of 147.9 ± 15.4 µM. In addition, in series [1], the “inhibitory effect on LPS-induced NO production (in words)” value is “moderate suppression effects”.
In turn, `O=C1c2c(O)cc(O)cc2O[C@H](c2ccc(O)cc2)[C@H]1O` [Comp. 9, dihydrokaempferol] displayed an IC10 values in the series on RAW264.7 cells of 139.4 ± 10.3 µM. 139.4 µM produced 21.3% inhibition in series [1] (Mus musculus, compound at level of IC10, 139.4 μM). Besides, in series [1], the “inhibitory effect on LPS-induced NO production (in words)” value is listed as “lowest inhibitory effects”.
Turning to `COc1cc(C(O)C(CO)C(CO)C(O)c2cc(OC)c(O)c(OC)c2)cc(OC)c1O` (centres unmarked) [Comp. 5, 1,4-bis(4-hydroxy-3,5-dimethoxyphenyl)-2,3-bis(hydroxymethyl)-1,4-butanediol], the IC10 values in the series with RAW264.7 cells is 166.0 ± 9.7 µM. Further, the “inhibitory effect on LPS-induced NO production (in words)” value in series [1] is given as “moderate suppression effects”. For the same compound, in series [2], the IC50 is under 16.6 µM and the “inhibitory effect on LPS-induced TNF-α production (in words)” value is recorded as “high inhibitory effects”.
As to `CC1CCCCCCCc2cc(O)cc(O)c2C(=O)O1` (centres unmarked) [Comp. 3, de-O-methyllasiodiplodin], the IC10 values in the series with RAW264.7 cells worked out at 154.3 ± 20.5 µM. The “inhibitory effect on LPS-induced NO production (in words)” value in series [1] was “moderate suppression effects”.
Consider `Oc1ccc(/C=C/c2cc(O)cc(O)c2)cc1` [Comp. 7, trans-resveratrol], for which, in the series on RAW264.7 cells, the IC10 values is 4.4 ± 5.7 µM. The inhibition at 0.4 µM in series [1] (Mus musculus, compound at 0.4 μM) is about 32%. The compound also gave an inhibition at 4.4 µM in series [1] (Mus musculus, compound at 4.4 μM) of about 48%. For the same compound, the “inhibitory effect on LPS-induced NO production (in words)” value in series [1] is on record as “significant inhibitory effects”. Besides, in series [2], the IC50 was under 4.4 µM and the “inhibitory effect on LPS-induced TNF-α production (in words)” value is “high inhibitory effects”.
In turn, `COc1cc([C@H]2OC[C@H]3[C@@H]2CO[C@@H]3c2cc(OC)c(O)c(OC)c2)cc(OC)c1O` [Comp. 1, syringaresinol] had an IC10 values in the series with RAW264.7 cells of 23.9 ± 1.8 µM. The “inhibitory effect on LPS-induced NO production (in words)” value in series [1] is reported as “moderate suppression effects”. In series [2], the IC50 is under 2.3 µM and the “inhibitory effect on LPS-induced TNF-α production (in words)” value is listed as “high inhibitory effects”.
Take `COc1cc(C(=O)O)cc(OC)c1O` [Comp. 4, syringic acid]: the IC10 values with RAW264.7 cells is 5.1 ± 4.2 µM. Moreover, in series [1] (Mus musculus, compound at 0.5 μM), the inhibition at 0.5 µM was about 19%. In addition, the inhibition at 5.1 µM in series [1] (Mus musculus, compound at 5.1 μM) is about 25%. Besides, in series [1], the “inhibitory effect on LPS-induced NO production (in words)” value was “significant inhibitory effects”.
